# Literature values, collected in publication PMC4004541, “PEG-Like Nanoprobes: Multimodal, Pharmacokinetically and Optically Tunable Nanomaterials” (PLoS ONE, 2014).
# Set-up: method as in manufacturer's package insert
# Conditions: humans; ref manufacturer's package insert; cited from earlier work
compound,measurement,value
"CC1(C)C(/C=C/C=C/C=C/C=C2\N(CCCCS(=O)(=O)O)c3ccc4ccccc4c3C2(C)C)=[N+](CCCCS(=O)(=O)[O-])c2ccc3ccccc3c21 [ICG, indocyanine green]",Blood half-life,2.5 to 3 min
